≈ marks a conversion by molar mass, not a printed value.
Tests used:
E. coli ATCC 25922 = assay: Broth microdilution MIC, E. coli ATCC 25922; type: cell-based; conditions: Escherichia coli, ATCC25922; E. coli ATCC 25922, broth microdilution; read-out: MIC E. coli 25922
Method in brief: (§1)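 Colonies from Mueller Hinton II agar were grown 3-5 hours at 37° C in cation-supplemented broth, adjusted by OD600, then added to 2-fold compound dilutions at 5×10^5 CFU/mL. After 16-20 hours at 37° C, MICs were scored visually.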

E. coli AG100 = assay: Broth microdilution MIC, E. coli AG100 (wild-type parent); type: cell-based; conditions: Escherichia coli; wild-type parent E. coli AG100, broth microdilution; read-out: MIC E. coli AG100
Method in brief: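 Starting inoculum of 5×10^5 CFU/mL, from colonies grown 3-5 h in Mueller-Hinton broth with divalent cations, added to two-fold compound dilution series.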

E. coli 901C = assay: microbe, parasite or virus in culture; type: cell-based; conditions: Escherichia coli; hyper-permeable E. coli 901C, broth microdilution; read-out: MIC E. coli 901C
Method in brief: as §1

E. coli AG100A = assay: microbe, parasite or virus in culture; type: cell-based; conditions: Escherichia coli, read-out: MIC E. coli AG100A
Method in brief: as §1

E. coli D22 = assay: microbe, parasite or virus in culture; type: cell-based; conditions: Escherichia coli; hyper-permeable E. coli D22, broth microdilution; read-out: MIC E. coli D22
Method in brief: as §1

K. pneumoniae SI-117 = assay: microbe, parasite or virus in culture; type: cell-based; conditions: Klebsiella pneumoniae, SI117, read-out: MIC K. pneumoniae SI-117
Method in brief: as §1

K. pneumoniae UMM = assay: microbe, parasite or virus in culture; type: cell-based; conditions: Klebsiella pneumoniae; K. pneumoniae UMM producing SHV-5 and KPC-2; read-out: MIC K. pneumoniae UMM
Method in brief: as §1

K. pneumoniae 848844 = assay: microbe, parasite or virus in culture; type: cell-based, Klebsiella pneumoniae; conditions: Klebsiella pneumoniae; K. pneumoniae 848844 producing SHV-11 and KPC-2; read-out: MIC K. pneumoniae 848844
Method in brief: as §1

[1] = tested on: N. gonorrhoeae ATCC 49226; assay: Liquid broth MIC, N. gonorrhoeae ATCC 49226; type: cell-based; conditions: Neisseria gonorrhoeae, ATCC49226; N. gonorrhoeae ATCC 49226, liquid broth; read-out: Minimum Inhibitory Concentration, N. gonorrhoeae ATCC 49226
Method in brief: (§2)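 Broth microdilution, 2-fold compound series; start inoculum 5×10^5 CFU/mL (OD600-adjusted, GC broth pH 7.2, Kellogg's suppl.). 40-42 h, 36° C, 5% CO2. MIC = lowest conc., no visible growth.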

N. gonorrhoeae FA1090 = assay: Liquid broth MIC, N. gonorrhoeae FA1090; type: cell-based; conditions: Neisseria gonorrhoeae; N. gonorrhoeae FA1090, liquid broth; read-out: Minimum Inhibitory Concentration, N. gonorrhoeae FA1090
Method in brief: as §2

N. gonorrhoeae WHO F = assay: Liquid broth MIC, N. gonorrhoeae WHO F; type: cell-based; conditions: Neisseria gonorrhoeae; N. gonorrhoeae WHO F, liquid broth; read-out: Minimum Inhibitory Concentration, N. gonorrhoeae WHO F
Method in brief: as §2

N. gonorrhoeae FA19 = assay: Liquid broth MIC, N. gonorrhoeae FA19; type: cell-based; conditions: Neisseria gonorrhoeae; N. gonorrhoeae FA19, liquid broth; read-out: Minimum Inhibitory Concentration, N. gonorrhoeae FA19
Method in brief: as §2

Structure (SMILES)	MIC (E. coli ATCC 25922)	MIC (E. coli AG100)	MIC (E. coli 901C)	MIC (E. coli AG100A)	MIC (E. coli D22)	MIC (K. pneumoniae SI-117)	MIC (K. pneumoniae UMM)	MIC (K. pneumoniae 848844)	MIC [1]	MIC (N. gonorrhoeae FA1090)	MIC (N. gonorrhoeae WHO F)	MIC (N. gonorrhoeae FA19)
O=C(O)c1c(F)ccc2c1OB(O)[C@@H](NC(=O)C(NC(=O)N1CCN(CCF)C(=O)C1=O)c1ncc(O)cc1F)C2 (stereo partly drawn) [Example 183, (3R)-7-fluoro-3-(2-(3-fluoro-5-hydroxypyridin-2-yl)-2-(4-(2-fluoroethyl)-2,3-dioxopiperazine-1-carboxamido)acetamido)-2-hydroxy-3,4-dihydro-2H-benzo[e][1,2]oxaborinine-8-carboxylic acid]	32 to 64 mg/L	8 to 16 mg/L	< 0.25 mg/L	2 to 4 mg/L	2 to 4 mg/L	32 to 64 mg/L	8 to 16 mg/L	> 128 mg/L	0.25 to 0.5 mg/L (≈ 0.432 to 0.863 µM)	0.25 to 0.5 mg/L (≈ 0.432 to 0.863 µM)	< 0.125 mg/L	1 to 2 mg/L (≈ 1.73 to 3.45 µM)
CCN1CCN(C(=O)N[C@@H](C(=O)N[C@H]2Cc3cccc(C(=O)O)c3OB2O)c2ccc(O)c(O)c2Cl)C(=O)C1=O [Example 190, (R)-3-((R)-2-(2-chloro-3,4-dihydroxyphenyl)-2-(4-ethyl-2,3-dioxopiperazine-1-carboxamido)acetamido)-2-hydroxy-3,4-dihydro-2H-benzo[e][1,2]oxaborinine-8-carboxylic acid]	2 to 4 mg/L	0.5 to 1 mg/L	< 0.25 mg/L	< 0.25 mg/L	0.5 to 1 mg/L	2 to 4 mg/L	0.5 to 1 mg/L	0.5 to 1 mg/L	1 to 2 mg/L (≈ 1.74 to 3.48 µM)	0.25 to 0.5 mg/L (≈ 0.435 to 0.87 µM)	0.25 to 0.5 mg/L (≈ 0.435 to 0.87 µM)	4 to 8 mg/L (≈ 6.96 to 13.9 µM)
CCN1CCN(C(=O)NC(C(=O)N[C@H]2Cc3cccc(C(=O)O)c3OB2O)c2ccc(S(N)(=O)=O)c(F)c2)C(=O)C1=O (stereo partly drawn) [Example 210, (3R)-3-(2-(4-ethyl-2,3-dioxopiperazine-1-carboxamido)-2-(3-fluoro-4-sulfamoylphenyl)acetamido)-2-hydroxy-3,4-dihydro-2H-benzo[e][1,2]oxaborinine-8-carboxylic acid]	8 to 16 mg/L	32 to 64 mg/L	< 0.25 mg/L	2 to 4 mg/L	2 to 4 mg/L	> 128 mg/L	32 to 64 mg/L	> 128 mg/L	4 to 8 mg/L (≈ 6.61 to 13.2 µM)	< 0.125 mg/L	< 0.125 mg/L	1 to 2 mg/L (≈ 1.65 to 3.3 µM)
CCN1CCN(C(=O)NC(C(=O)N[C@H]2Cc3cccc(C(=O)O)c3OB2O)c2ncc(O)cc2F)C(=O)C1=O (stereo partly drawn) [Example 135, (3R)-3-(2-(4-ethyl-2,3-dioxopiperazine-1-carboxamido)-2-(3-fluoro-5-hydroxypyridin-2-yl)acetamido)-2-hydroxy-3,4-dihydro-2H-benzo[e][1,2]oxaborinine-8-carboxylic acid]	2 to 4 mg/L	8 to 16 mg/L	< 0.25 mg/L	2 to 4 mg/L	0.5 to 1 mg/L	32 to 64 mg/L	8 to 16 mg/L	32 to 64 mg/L	1 to 2 mg/L (≈ 1.84 to 3.68 µM)	< 0.125 mg/L	< 0.125 mg/L	1 to 2 mg/L (≈ 1.84 to 3.68 µM)
NCCCN1CCN(C(=O)NC(C(=O)N[C@H]2Cc3cccc(C(=O)O)c3OB2O)c2ccc(O)c(O)c2Cl)C(=O)C1=O (stereo partly drawn) [Example 233, (3R)-3-(2-(4-(3-aminopropyl)-2,3-dioxopiperazine-1-carboxamido)-2-(2-chloro-3,4-dihydroxyphenyl)acetamido)-2-hydroxy-3,4-dihydro-2H-benzo[e][1,2]oxaborinine-8-carboxylic acid]	8 to 16 mg/L	0.5 to 1 mg/L	0.5 to 1 mg/L	0.5 to 1 mg/L	0.5 to 1 mg/L	2 to 4 mg/L	2 to 4 mg/L	2 to 4 mg/L	> 64 mg/L	1 to 2 mg/L (≈ 1.66 to 3.31 µM)	4 to 8 mg/L (≈ 6.62 to 13.2 µM)	16 to 32 mg/L (≈ 26.5 to 53 µM)
CCN1CCN(C(=O)NC(C(=O)N[C@H]2Cc3ccc(F)c(C(=O)O)c3OB2O)c2ccc(O)c(O)c2Cl)C(=O)C1=O (stereo partly drawn) [Example 124, (3R)-3-(2-(2-chloro-3,4-dihydroxyphenyl)-2-(4-ethyl-2,3-dioxopiperazine-1-carboxamido)acetamido)-7-fluoro-2-hydroxy-3,4-dihydro-2H-benzo[e][1,2]oxaborinine-8-carboxylic acid]	8 to 16 mg/L	0.5 to 1 mg/L	< 0.25 mg/L	0.5 to 1 mg/L	0.5 to 1 mg/L	8 to 16 mg/L	8 to 16 mg/L	> 128 mg/L	1 to 2 mg/L (≈ 1.69 to 3.37 µM)	1 to 2 mg/L (≈ 1.69 to 3.37 µM)	< 0.125 mg/L	4 to 8 mg/L (≈ 6.75 to 13.5 µM)
CCN1CCN(C(=O)N[C@@H](C(=O)N[C@H]2Cc3ccc(F)c(C(=O)O)c3OB2O)c2ccc(O)c(F)c2)C(=O)C1=O [Example 161, (R)-3-((R)-2-(4-ethyl-2,3-dioxopiperazine-1-carboxamido)-2-(3-fluoro-4-hydroxyphenyl)acetamido)-7-fluoro-2-hydroxy-3,4-dihydro-2H-benzo[e][1,2]oxaborinine-8-carboxylic acid]	> 128 mg/L	> 128 mg/L	0.5 to 1 mg/L	32 to 64 mg/L	2 to 4 mg/L	> 128 mg/L	32 to 64 mg/L	> 128 mg/L	1 to 2 mg/L (≈ 1.78 to 3.57 µM)	< 0.125 mg/L	< 0.125 mg/L	1 to 2 mg/L (≈ 1.78 to 3.57 µM)
CCN1CCN(C(=O)NC(C(=O)N[C@H]2Cc3ccc(F)c(C(=O)O)c3OB2O)c2csc(N)n2)C(=O)C1=O (stereo partly drawn) [Example 109, (3R)-3-(2-(2-aminothiazol-4-yl)-2-(4-ethyl-2,3-dioxopiperazine-1-carboxamido)acetamido)-7-fluoro-2-hydroxy-3,4-dihydro-2H-benzo[e][1,2]oxaborinine-8-carboxylic acid]	8 to 16 mg/L	8 to 16 mg/L	0.5 to 1 mg/L	8 to 16 mg/L	2 to 4 mg/L	8 to 16 mg/L	8 to 16 mg/L	32 to 64 mg/L	1 to 2 mg/L (≈ 1.82 to 3.65 µM)	0.25 to 0.5 mg/L (≈ 0.456 to 0.912 µM)	0.25 to 0.5 mg/L (≈ 0.456 to 0.912 µM)	4 to 8 mg/L (≈ 7.3 to 14.6 µM)
CCN1CCN(C(=O)NC(C(=O)N[C@H]2Cc3ccc(F)c(C(=O)O)c3OB2O)c2cc(O)c(O)cc2F)C(=O)C1=O (stereo partly drawn) [Example 136, (3R)-3-(2-(4-ethyl-2,3-dioxopiperazine-1-carboxamido)-2-(2-fluoro-4,5-dihydroxyphenyl)acetamido)-7-fluoro-2-hydroxy-3,4-dihydro-2H-benzo[e][1,2]oxaborinine-8-carboxylic acid]	8 to 16 mg/L	2 to 4 mg/L	0.5 to 1 mg/L	2 to 4 mg/L	2 to 4 mg/L	> 128 mg/L	8 to 16 mg/L	32 to 64 mg/L	1 to 2 mg/L (≈ 1.74 to 3.47 µM)	1 to 2 mg/L (≈ 1.74 to 3.47 µM)	1 to 2 mg/L (≈ 1.74 to 3.47 µM)	4 to 8 mg/L (≈ 6.94 to 13.9 µM)
CCN1CCN(C(=O)NC(C(=O)N[C@H]2Cc3ccc(F)c(C(=O)O)c3OB2O)c2ccc(O)c(O)c2F)C(=O)C1=O (stereo partly drawn) [Example 149, (3R)-3-(2-(4-ethyl-2,3-dioxopiperazine-1-carboxamido)-2-(2-fluoro-3,4-dihydroxyphenyl)acetamido)-7-fluoro-2-hydroxy-3,4-dihydro-2H-benzo[e][1,2]oxaborinine-8-carboxylic acid]	8 to 16 mg/L	2 to 4 mg/L	0.5 to 1 mg/L	0.5 to 1 mg/L	2 to 4 mg/L	2 to 4 mg/L	2 to 4 mg/L	2 to 4 mg/L	1 to 2 mg/L (≈ 1.74 to 3.47 µM)	0.25 to 0.5 mg/L (≈ 0.434 to 0.868 µM)	< 0.125 mg/L	1 to 2 mg/L (≈ 1.74 to 3.47 µM)
NS(=O)(=O)c1ccc(C(NC(=O)N2CCN(CCF)C(=O)C2=O)C(=O)N[C@H]2Cc3cccc(C(=O)O)c3OB2O)c(F)c1 (stereo partly drawn) [Example 204, (3R)-3-(2-(2-fluoro-4-sulfamoylphenyl)-2-(4-(2-fluoroethyl)-2,3-dioxopiperazine-1-carboxamido)acetamido)-2-hydroxy-3,4-dihydro-2H-benzo[e][1,2]oxaborinine-8-carboxylic acid]	32 to 64 mg/L	32 to 64 mg/L	< 0.25 mg/L	2 to 4 mg/L	2 to 4 mg/L	> 128 mg/L	32 to 64 mg/L	> 128 mg/L	1 to 2 mg/L (≈ 1.6 to 3.21 µM)	0.25 to 0.5 mg/L (≈ 0.401 to 0.802 µM)	0.25 to 0.5 mg/L (≈ 0.401 to 0.802 µM)	1 to 2 mg/L (≈ 1.6 to 3.21 µM)
O=C(O)c1c(F)ccc2c1OB(O)[C@@H](NC(=O)C(NC(=O)N1CCN(CCF)C(=O)C1=O)c1ccc(O)c(O)c1Cl)C2 (stereo partly drawn) [Example 131]	2 to 4 mg/L	8 to 16 mg/L	0.5 to 1 mg/L	2 to 4 mg/L	2 to 4 mg/L	8 to 16 mg/L	8 to 16 mg/L	32 to 64 mg/L	4 to 8 mg/L (≈ 6.55 to 13.1 µM)	0.25 to 0.5 mg/L (≈ 0.409 to 0.819 µM)	0.25 to 0.5 mg/L (≈ 0.409 to 0.819 µM)	4 to 8 mg/L (≈ 6.55 to 13.1 µM)

— US12173018B2, “Penicillin-binding protein inhibitors” (priority 2018, dated 2024)
